Experimental data as given in paper PMC4854315, “Discovery of a novel allosteric inhibitor-binding site in ERK5: comparison with the canonical kinase hinge ATP-binding site” (Acta Crystallographica. Section D, Structural Biology, 2016).

Legend:
Assay in all cases: Z'-LYTE kinase panel
Assay type in all cases: biochemical
EPHA1 = molecular target: T1, EPHA1 (Homo sapiens, UniProt P21709)
T1 construct: purchased ThermoFisher (SelectScreen, Z'-LYTE)
T1 sequence (P21709 26-976): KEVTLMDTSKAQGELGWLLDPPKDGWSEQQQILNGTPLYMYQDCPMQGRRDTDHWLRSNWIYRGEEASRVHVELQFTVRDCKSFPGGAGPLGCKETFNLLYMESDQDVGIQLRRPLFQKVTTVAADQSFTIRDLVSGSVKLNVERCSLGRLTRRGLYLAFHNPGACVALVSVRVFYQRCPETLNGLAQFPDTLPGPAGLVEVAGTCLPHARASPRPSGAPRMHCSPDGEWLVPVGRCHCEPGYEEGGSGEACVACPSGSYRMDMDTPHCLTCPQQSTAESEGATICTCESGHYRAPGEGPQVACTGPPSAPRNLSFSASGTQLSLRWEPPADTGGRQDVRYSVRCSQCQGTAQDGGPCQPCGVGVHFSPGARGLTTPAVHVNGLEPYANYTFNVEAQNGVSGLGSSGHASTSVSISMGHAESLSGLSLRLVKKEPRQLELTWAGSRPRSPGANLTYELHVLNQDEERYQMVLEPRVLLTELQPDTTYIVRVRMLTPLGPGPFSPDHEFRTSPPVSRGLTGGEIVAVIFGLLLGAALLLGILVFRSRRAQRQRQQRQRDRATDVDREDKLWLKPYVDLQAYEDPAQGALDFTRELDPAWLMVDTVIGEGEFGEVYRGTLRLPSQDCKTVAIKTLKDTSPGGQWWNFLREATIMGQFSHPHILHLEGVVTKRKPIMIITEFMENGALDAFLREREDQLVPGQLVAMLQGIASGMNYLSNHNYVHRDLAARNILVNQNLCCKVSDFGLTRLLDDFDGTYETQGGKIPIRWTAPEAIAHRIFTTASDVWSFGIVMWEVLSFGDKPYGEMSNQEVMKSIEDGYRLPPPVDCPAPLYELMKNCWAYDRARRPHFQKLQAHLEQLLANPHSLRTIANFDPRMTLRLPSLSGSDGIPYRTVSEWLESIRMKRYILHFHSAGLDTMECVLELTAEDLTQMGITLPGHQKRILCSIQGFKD
In short: (§1)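 The 225-kinase standard panel was run using the Z′-LYTE protocol, and inhibition was expressed as a percentage relative to uninhibited activity at 10 µM compound.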

EPHA8 = molecular target: T2, EPHA8 (Homo sapiens, UniProt P29322)
T2 construct: purchased ThermoFisher (SelectScreen, Z'-LYTE)
T2 sequence (P29322 28-1005): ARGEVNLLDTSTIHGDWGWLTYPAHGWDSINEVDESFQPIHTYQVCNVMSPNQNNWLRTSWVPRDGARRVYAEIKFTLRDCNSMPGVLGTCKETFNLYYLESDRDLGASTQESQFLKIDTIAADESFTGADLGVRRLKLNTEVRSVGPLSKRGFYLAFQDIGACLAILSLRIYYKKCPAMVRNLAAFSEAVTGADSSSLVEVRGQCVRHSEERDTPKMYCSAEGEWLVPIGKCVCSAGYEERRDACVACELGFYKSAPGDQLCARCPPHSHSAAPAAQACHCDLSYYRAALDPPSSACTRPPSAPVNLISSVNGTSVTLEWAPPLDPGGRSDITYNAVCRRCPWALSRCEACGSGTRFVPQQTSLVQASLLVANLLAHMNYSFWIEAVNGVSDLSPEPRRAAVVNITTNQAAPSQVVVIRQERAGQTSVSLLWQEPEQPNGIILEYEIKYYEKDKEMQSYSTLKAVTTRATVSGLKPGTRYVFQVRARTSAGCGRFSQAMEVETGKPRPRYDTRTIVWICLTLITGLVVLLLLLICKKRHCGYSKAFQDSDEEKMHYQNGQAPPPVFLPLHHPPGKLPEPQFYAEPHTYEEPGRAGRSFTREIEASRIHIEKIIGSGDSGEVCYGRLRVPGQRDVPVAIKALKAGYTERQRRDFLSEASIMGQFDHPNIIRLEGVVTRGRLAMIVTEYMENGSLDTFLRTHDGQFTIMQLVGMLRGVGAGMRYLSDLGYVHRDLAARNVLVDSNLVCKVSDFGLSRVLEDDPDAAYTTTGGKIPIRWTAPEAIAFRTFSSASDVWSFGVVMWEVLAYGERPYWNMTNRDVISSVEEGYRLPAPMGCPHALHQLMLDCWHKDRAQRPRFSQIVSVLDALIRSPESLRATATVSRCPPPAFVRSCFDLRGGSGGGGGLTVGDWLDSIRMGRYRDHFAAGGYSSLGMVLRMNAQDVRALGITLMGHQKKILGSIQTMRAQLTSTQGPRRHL
In short: as §1

PRKCN (PKD3) = molecular target: T3, PRKCN (PKD3) (Homo sapiens, UniProt O94806)
T3 construct: purchased ThermoFisher (SelectScreen, Z'-LYTE)
T3 sequence (O94806 1-890): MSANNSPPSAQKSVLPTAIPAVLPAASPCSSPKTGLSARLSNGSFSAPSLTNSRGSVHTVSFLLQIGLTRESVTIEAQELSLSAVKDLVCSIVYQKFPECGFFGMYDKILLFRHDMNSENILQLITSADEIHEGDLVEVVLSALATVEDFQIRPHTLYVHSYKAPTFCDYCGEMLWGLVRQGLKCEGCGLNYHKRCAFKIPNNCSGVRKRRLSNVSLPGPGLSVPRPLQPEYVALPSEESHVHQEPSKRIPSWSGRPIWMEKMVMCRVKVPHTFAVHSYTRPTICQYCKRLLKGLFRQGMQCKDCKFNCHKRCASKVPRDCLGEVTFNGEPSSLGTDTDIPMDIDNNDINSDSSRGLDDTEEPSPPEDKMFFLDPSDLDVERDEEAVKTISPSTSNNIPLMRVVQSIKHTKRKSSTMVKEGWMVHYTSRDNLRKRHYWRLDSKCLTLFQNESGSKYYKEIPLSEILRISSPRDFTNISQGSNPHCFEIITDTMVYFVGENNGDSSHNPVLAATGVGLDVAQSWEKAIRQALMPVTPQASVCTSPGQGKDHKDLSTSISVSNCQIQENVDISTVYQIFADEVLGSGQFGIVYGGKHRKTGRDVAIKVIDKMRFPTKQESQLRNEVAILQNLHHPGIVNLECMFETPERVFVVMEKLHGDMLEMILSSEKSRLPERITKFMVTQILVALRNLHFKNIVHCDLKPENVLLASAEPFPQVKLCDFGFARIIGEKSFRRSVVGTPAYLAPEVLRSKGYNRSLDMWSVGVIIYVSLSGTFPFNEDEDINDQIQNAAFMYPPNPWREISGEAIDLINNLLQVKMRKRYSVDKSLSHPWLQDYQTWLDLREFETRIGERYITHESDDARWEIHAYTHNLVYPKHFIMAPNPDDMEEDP
In short: as §1

RET = molecular target: T4, RET (Homo sapiens, UniProt P07949)
T4 construct: purchased ThermoFisher (SelectScreen, Z'-LYTE)
In short: as §1

YES1 = molecular target: T5, YES1 (Homo sapiens, UniProt P07947)
T5 construct: purchased ThermoFisher (SelectScreen, Z'-LYTE)
In short: as §1

T4 sequence (P07949 29-1114): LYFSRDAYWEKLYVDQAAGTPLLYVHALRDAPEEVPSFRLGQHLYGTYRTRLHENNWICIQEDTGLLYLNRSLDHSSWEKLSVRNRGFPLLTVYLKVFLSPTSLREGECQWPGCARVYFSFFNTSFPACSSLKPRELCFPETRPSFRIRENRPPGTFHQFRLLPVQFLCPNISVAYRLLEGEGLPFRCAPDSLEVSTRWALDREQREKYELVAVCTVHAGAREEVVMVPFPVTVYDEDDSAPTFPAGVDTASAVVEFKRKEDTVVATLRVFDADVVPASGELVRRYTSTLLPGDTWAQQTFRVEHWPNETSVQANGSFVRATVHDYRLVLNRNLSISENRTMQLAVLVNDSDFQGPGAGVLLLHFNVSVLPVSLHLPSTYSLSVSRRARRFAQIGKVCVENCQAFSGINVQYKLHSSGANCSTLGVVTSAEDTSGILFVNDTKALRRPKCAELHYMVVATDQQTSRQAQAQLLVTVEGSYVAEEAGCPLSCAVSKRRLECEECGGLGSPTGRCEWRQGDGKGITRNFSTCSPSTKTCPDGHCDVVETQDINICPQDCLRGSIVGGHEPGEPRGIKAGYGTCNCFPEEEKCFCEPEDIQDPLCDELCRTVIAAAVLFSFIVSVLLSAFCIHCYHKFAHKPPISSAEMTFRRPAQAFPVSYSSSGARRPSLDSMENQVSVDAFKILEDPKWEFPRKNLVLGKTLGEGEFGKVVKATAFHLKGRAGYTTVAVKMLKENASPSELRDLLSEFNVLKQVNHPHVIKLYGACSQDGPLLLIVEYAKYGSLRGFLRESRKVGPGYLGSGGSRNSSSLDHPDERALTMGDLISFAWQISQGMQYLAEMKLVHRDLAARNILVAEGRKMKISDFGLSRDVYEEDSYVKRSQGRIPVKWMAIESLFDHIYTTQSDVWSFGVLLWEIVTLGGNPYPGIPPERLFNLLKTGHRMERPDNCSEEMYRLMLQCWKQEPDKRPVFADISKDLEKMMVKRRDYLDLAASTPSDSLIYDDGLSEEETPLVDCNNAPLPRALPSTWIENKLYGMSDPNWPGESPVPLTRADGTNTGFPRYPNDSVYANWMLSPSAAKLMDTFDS
T5 sequence (P07947 whole entry): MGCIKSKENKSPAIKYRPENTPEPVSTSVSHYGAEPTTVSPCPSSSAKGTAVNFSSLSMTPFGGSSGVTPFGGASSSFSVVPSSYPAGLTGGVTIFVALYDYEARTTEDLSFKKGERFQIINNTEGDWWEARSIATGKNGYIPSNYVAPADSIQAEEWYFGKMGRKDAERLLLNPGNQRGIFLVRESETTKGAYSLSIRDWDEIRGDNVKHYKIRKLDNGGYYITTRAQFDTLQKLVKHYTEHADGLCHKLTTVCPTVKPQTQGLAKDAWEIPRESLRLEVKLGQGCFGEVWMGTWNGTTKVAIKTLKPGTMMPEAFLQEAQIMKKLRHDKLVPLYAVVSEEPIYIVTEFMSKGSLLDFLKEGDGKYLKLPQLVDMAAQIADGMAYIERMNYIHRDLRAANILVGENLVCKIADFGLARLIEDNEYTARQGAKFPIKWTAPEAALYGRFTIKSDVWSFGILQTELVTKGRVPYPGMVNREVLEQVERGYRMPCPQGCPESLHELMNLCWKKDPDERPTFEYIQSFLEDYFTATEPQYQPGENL

Compound: XMD8-92 [Compound 2, reference compound]
- EPHA1 % Inhibition (EPHA1; 10 µM compound, ATP Km app): 9.48%
- EPHA8 % Inhibition (EPHA8; 10 µM compound, ATP Km app): 23%
- PRKCN (PKD3) % Inhibition (PRKCN (PKD3); 10 µM compound, ATP Km app): 18%
- RET % Inhibition (RET; 10 µM compound, ATP Km app): 40%
- YES1 % Inhibition (YES1; 10 µM compound, ATP Km app): 41%

Compound: Cc1ncc(-c2nc(Nc3ccc(C(=O)NCCN4CCCCC4)cc3)ncc2F)n1C(C)C [Compound 3]
- inhibition at 10 µM (EPHA1): 98%
- inhibition at 10 µM (EPHA8): 50%
- inhibition at 10 µM (PRKCN (PKD3)): 87%
- inhibition at 10 µM (RET): 95%
- inhibition at 10 µM (YES1): 85%

Compound: Cc1cc(Nc2nc(N)nn2C(=O)NC(C)C)ccc1Cl [Compound 5]
- inhibition at 10 µM (EPHA1): 11%
- inhibition at 10 µM (EPHA8): 0.0057%
- inhibition at 10 µM (PRKCN (PKD3)): 11%
- inhibition at 10 µM (RET): 44%
- inhibition at 10 µM (YES1): 46%
